Data on 23 molecules can be found in patent publication US20240025922A1, “TETRAHYDROPYRIDO[3,4-d]PYRIMIDINES AS HPK1 INHIBITORS” (Merck Patent GmbH, priority 2022, published 2024).

For assay [1], the target named is full-length human HPK1 (MAP4K1) (Homo sapiens (Human), UniProt Q92918). The assay is described as follows: HPK1 Kinase Assay (Biochemical Assay), ADP-Glo. Particulars: GST-HPK1 3.2 nM, 10 μM ATP, MBP substrate, read-out: HPK1 enzymatic IC50. In short, it runs like this: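 ADP-Glo luminescence after a 120-min kinase reaction gave percent inhibition and IC50. The enzyme was Sf21-expressed N-terminal GST full-length human HPK1 at 3.2 nM in HEPES pH 7.5 buffer with MgCl2, DTT, Brij-35 and BSA.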

Assay [2] concerns the target HPK1 (SLP76 phosphorylation at Ser376 in Jurkat and EL-4 cells) (Homo sapiens, UniProt Q92918). The assay is classed as cell-based. Particulars: αCD3/αCD28 Dynabeads stimulated cells, pSLP76 (Ser376) detection; read-out: HPK1 pSLP76 IC50. An outline of the steps:
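Phospho-SLP76 (Ser376) in lysates measured by AlphaLISA for human Jurkat and by 19 h HTRF for mouse EL-4, giving % inhibition and IC50. Compounds applied 60 min before αCD3/αCD28 bead stimulation at 37 °C, lasting 15 min (Jurkat) or 30 min (EL-4).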

The structures appear in SMILES notation.

Sequence of HPK1 (SLP76 phosphorylation at Ser376 in Jurkat and EL-4 cells) (Q92918 whole entry, looked up): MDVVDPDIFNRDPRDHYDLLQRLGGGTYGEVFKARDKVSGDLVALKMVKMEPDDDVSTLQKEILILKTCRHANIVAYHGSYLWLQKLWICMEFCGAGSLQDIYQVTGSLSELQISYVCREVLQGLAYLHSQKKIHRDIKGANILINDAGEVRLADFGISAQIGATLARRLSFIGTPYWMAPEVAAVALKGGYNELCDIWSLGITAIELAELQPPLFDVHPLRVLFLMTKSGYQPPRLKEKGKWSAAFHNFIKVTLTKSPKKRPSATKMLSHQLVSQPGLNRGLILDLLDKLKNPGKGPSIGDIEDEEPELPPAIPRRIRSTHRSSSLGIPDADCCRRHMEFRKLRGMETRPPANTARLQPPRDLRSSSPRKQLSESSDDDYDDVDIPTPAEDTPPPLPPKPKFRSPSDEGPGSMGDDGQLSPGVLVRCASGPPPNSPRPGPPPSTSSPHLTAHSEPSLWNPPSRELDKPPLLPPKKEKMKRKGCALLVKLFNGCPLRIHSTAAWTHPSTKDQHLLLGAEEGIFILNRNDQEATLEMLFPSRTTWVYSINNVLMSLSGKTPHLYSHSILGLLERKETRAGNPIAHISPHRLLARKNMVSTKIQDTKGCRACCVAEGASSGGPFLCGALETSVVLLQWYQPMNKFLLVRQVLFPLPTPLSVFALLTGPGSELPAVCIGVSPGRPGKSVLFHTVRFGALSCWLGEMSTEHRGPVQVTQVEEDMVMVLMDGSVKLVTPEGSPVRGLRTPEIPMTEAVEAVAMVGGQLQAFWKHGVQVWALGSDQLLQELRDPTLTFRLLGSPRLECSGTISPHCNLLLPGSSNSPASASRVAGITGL
Sequence of full-length human HPK1 (MAP4K1) (Q92918 whole entry): as the sequence (Q92918 whole entry, looked up) above

As for `Cc1c(N2CCc3cnc(Nc4ccc(CC(=O)N5CC(C)(O)C5)cc4)nc3C2)cnc2c1NCCO2` [Example 173, 1-(3-hydroxy-3-methylazetidin-1-yl)-2-{4-[(7-{8-methyl-1H,2H,3H-pyrido[2,3-b][1,4]oxazin-7-yl}-5H,6H,7H,8H-pyrido[3,4-d]pyrimidin-2-yl)amino]phenyl}ethan-1-one], the IC50 in assay [1] is < 0.1 µM; in assay [2] it was < 0.5 µM.
For `Cc1c(N2CCc3cnc(Nc4ccc([C@H](C)S(C)(=O)=O)cc4)nc3C2)cnc2c1NCCO2` (single isomer, unassigned) [Example 157], the values for the IC50 in assay [1] and in assay [2] were < 0.1 µM and < 0.5 µM, respectively.
Consider `Cc1c(N2CCc3cnc(Nc4ccc(CS(=O)(=O)CCN(C)C)cc4)nc3C2)cnc2c1NCCO2` [Example 154, N-(4-{[2-(dimethylamino)ethanesulfonyl]methyl}phenyl)-7-{8-methyl-1H,2H,3H-pyrido[2,3-b][1,4]oxazin-7-yl}-5H,6H,7H,8H-pyrido[3,4-d]pyrimidin-2-amine], for which the values for the IC50 in assay [1] and in assay [2] were < 0.1 µM and < 0.5 µM, respectively.
Take `Cc1c(N2CCc3cnc(Nc4ccc(Cn5cncn5)cc4)cc3C2)cnc2c1NCCO2` [Example 144, 6-{8-methyl-1H,2H,3H-pyrido[2,3-b][1,4]oxazin-7-yl}-N-{4-[(1H-1,2,4-triazol-1-yl)methyl]phenyl}-5,6,7,8-tetrahydro-2,6-naphthyridin-3-amine]: the IC50 is < 0.1 µM in assay [1] and < 0.5 µM in assay [2].
The matching figures for `Cc1cc(Nc2cc3c(cn2)CCN(c2cnc4c(c2Cl)NCCO4)C3)ccc1NC(=O)CN1CCOCC1` [Example 122, N-(4-((6-(8-chloro-2,3-dihydro-1H-pyrido[2,3-b][1,4]oxazin-7-yl)-5,6,7,8-tetrahydro-2,6-naphthyridin-3-yl)amino)-2-methylphenyl)-2-morpholinoacetamide]: < 0.1 µM and 0.5 to 1 µM.
As for `Cc1c(N2CCc3cnc(Nc4ccc5c(c4)CN(C)S(=O)(=O)C5)nc3C2)cnc2c1NCCO2` [Example 156, 3-methyl-6-[(7-{8-methyl-1H,2H,3H-pyrido[2,3-b][1,4]oxazin-7-yl}-5H,6H,7H,8H-pyrido[3,4-d]pyrimidin-2-yl)amino]-3,4-dihydro-1H-2?6,3-benzothiazine-2,2-dione], the IC50 in assay [1] was < 0.1 µM; in assay [2], < 0.5 µM.
The matching figures for `Cc1c(N2CCc3cnc(Nc4cc5n(n4)CC(=O)N(C(C)C)CC5)cc3C2)cnc2c1NCCO2` [Example 7, 2-[(6-{8-methyl-1H,2H,3H-pyrido[2,3-b][1,4]oxazin-7-yl}-5,6,7,8-tetrahydro-2,6-naphthyridin-3-yl)amino]-6-(propan-2-yl)-4H,5H,6H,7H,8H-pyrazolo[1,5-d][1,4]diazepin-7-one]: < 0.1 µM and < 0.5 µM.
Consider `COCCOc1ccc(Nc2ncc3c(n2)CN(c2cnc4c(c2C)NCCO4)CC3)cc1CO` [Example 83, (2-(2-methoxyethoxy)-5-((7-(8-methyl-2,3-dihydro-1H-pyrido[2,3-b][1,4]oxazin-7-yl)-5,6,7,8-tetrahydropyrido[3,4-d]pyrimidin-2-yl)amino)phenyl)methanol], for which the IC50 in assay [1] is < 0.1 µM; in assay [2], 0.5 to 1 µM.
For the molecule `Cc1c(N2CCc3cnc(Nc4ccc(CS(C)(=O)=O)nc4)cc3C2)cnc2c1NCCO2` [Example 51, 6-(8-methyl-2,3-dihydro-1H-pyrido[2,3-b][1,4]oxazin-7-yl)-N-(6-((methylsulfonyl)methyl)pyridin-3-yl)-5,6,7,8-tetrahydro-2,6-naphthyridin-3-amine], the results for the IC50 in assay [1] and in assay [2] were < 0.1 µM and 0.5 to 1 µM, respectively.
For `Cc1c(N2CCc3cnc(Nc4ccc(NCCN(C)C)c(F)c4)cc3C2)cnc2c1NCCO2` [Example 124, N1-(2-(dimethylamino)ethyl)-2-fluoro-N4-(6-(8-methyl-2,3-dihydro-1H-pyrido[2,3-b][1,4]oxazin-7-yl)-5,6,7,8-tetrahydro-2,6-naphthyridin-3-yl)benzene-1,4-diamine], in that order: < 0.1 µM and 0.5 to 1 µM.
For `Cc1c(N2CCc3cnc(Nc4ccc(NC(=O)CN5CCOCC5)cc4)nc3C2)cnc2c1NCCO2` [Example 12, N-{4-[(7-{8-methyl-1H,2H,3H-pyrido[2,3-b][1,4]oxazin-7-yl}-5H,6H,7H,8H-pyrido[3,4-d]pyrimidin-2-yl)amino]phenyl}-2-(morpholin-4-yl)acetamide], the IC50 in assay [1] is < 0.1 µM; in assay [2] it was < 0.5 µM.
As to `Cc1cc(Nc2cc3c(cn2)CCN(c2cnc4c(c2C)NCCO4)C3)ccc1NCCN(C)C` [Example 14, N1-[2-(dimethylamino)ethyl]-2-methyl-N4-(6-{8-methyl-1H,2H,3H-pyrido[2,3-b][1,4]oxazin-7-yl}-5,6,7,8-tetrahydro-2,6-naphthyridin-3-yl)benzene-1,4-diamine], the IC50 was < 0.1 µM in assay [1] and < 0.5 µM in assay [2].
For `Cc1c(N2CCc3cnc(Nc4ccc5c(c4)CN(C)C5)cc3C2)cnc2c1NCCO2` [Example 47, 6-{8-methyl-1H,2H,3H-pyrido[2,3-b][1,4]oxazin-7-yl}-N-(2-methyl-2,3-dihydro-1H-isoindol-5-yl)-5,6,7,8-tetrahydro-2,6-naphthyridin-3-amine], in that order: < 0.1 µM and 0.5 to 1 µM.
As to `Cc1cc(Nc2cc3c(cn2)CCN(c2cnc4c(c2C)NCCO4)C3)ccc1CS(C)(=O)=O` [Example 179, N-[4-(methanesulfonylmethyl)-3-methylphenyl]-6-{8-methyl-1H,2H,3H-pyrido[2,3-b][1,4]oxazin-7-yl}-5,6,7,8-tetrahydro-2,6-naphthyridin-3-amine], the figures for the IC50 in assay [1] and in assay [2] were < 0.1 µM and < 0.5 µM, respectively.
Regarding `COCC1CN(C(=O)Cc2ccc(Nc3ncc4c(n3)CN(c3cnc5c(c3C)NCCO5)CC4)cc2)C1` [Example 175, 1-[3-(methoxymethyl)azetidin-1-yl]-2-{4-[(7-{8-methyl-1H,2H,3H-pyrido[2,3-b][1,4]oxazin-7-yl}-5H,6H,7H,8H-pyrido[3,4-d]pyrimidin-2-yl)amino]phenyl}ethan-1-one], the IC50 is < 0.1 µM in assay [1] and < 0.5 µM in assay [2].
For `Cc1c(N2CCc3cnc(Nc4cccc(C(C)(C)O)c4)nc3C2)cnc2c1NCCO2` [Example 82, 2-(3-((7-(8-methyl-2,3-dihydro-1H-pyrido[2,3-b][1,4]oxazin-7-yl)-5,6,7,8-tetrahydropyrido[3,4-d]pyrimidin-2-yl)amino)phenyl)propan-2-ol], in that order: < 0.1 µM and < 0.5 µM.
Turning to `Cc1c(N2CCc3cnc(Nc4ccc(C(C)(C)S(C)(=O)=O)nc4)nc3C2)cnc2c1NCCO2` [Example 20, 6-(2-methanesulfonylpropan-2-yl)-N-(7-{8-methyl-1H,2H,3H-pyrido[2,3-b][1,4]oxazin-7-yl}-5H,6H,7H,8H-pyrido[3,4-d]pyrimidin-2-yl)pyridin-3-amine], the IC50 in assay [1] is < 0.1 µM; in assay [2], > 1 µM.
As for `Cc1c(N2CCc3cnc(Nc4ccc(C(C)(C)C#N)cc4)nc3C2)cnc2c1NCCO2` [Example 182, 2-methyl-2-(4-((7-(8-methyl-2,3-dihydro-1H-pyrido[2,3-b][1,4]oxazin-7-yl)-5,6,7,8-tetrahydropyrido[3,4-d]pyrimidin-2-yl)amino)phenyl)propanenitrile], the IC50 was < 0.1 µM in assay [1] and < 0.5 µM in assay [2].
The matching figures for `Cc1cc(Nc2cc3c(cn2)CCN(c2cnc4c(c2C)NCCO4)C3)ccc1NC(=O)CN1CCOCC1` [Example 34, N-{2-methyl-4-[(6-{8-methyl-1H,2H,3H-pyrido[2,3-b][1,4]oxazin-7-yl}-5,6,7,8-tetrahydro-2,6-naphthyridin-3-yl)amino]phenyl}-2-(morpholin-4-yl)acetamide]: < 0.1 µM and < 0.5 µM.
The matching figures for `COC1CN(C(=O)Cc2ccc(Nc3ncc4c(n3)CN(c3cnc5c(c3C)NCCO5)CC4)cc2)C1` [Example 181, 1-(3-methoxyazetidin-1-yl)-2-{4-[(7-{8-methyl-1H,2H,3H-pyrido[2,3-b][1,4]oxazin-7-yl}-5H,6H,7H,8H-pyrido[3,4-d]pyrimidin-2-yl)amino]phenyl}ethan-1-one]: < 0.1 µM and < 0.5 µM.
Consider `Cc1c(N2CCc3cnc(Nc4ccc(NCCN5CCOCC5)c(F)c4)cc3C2)cnc2c1NCCO2` [Example 4, 2-fluoro-N4-(6-{8-methyl-1H,2H,3H-pyrido[2,3-b][1,4]oxazin-7-yl}-5,6,7,8-tetrahydro-2,6-naphthyridin-3-yl)-N1-[2-(morpholin-4-yl)ethyl]benzene-1,4-diamine], for which the IC50 in assay [1] was < 0.1 µM; in assay [2], < 0.5 µM.
On to `Cc1cc(Nc2cc3c(cn2)CCN(c2cnc4c(c2C)NCCO4)C3)ccc1NCCN1CCOCC1` [Example 15, 2-methyl-N4-(6-{8-methyl-1H,2H,3H-pyrido[2,3-b][1,4]oxazin-7-yl}-5,6,7,8-tetrahydro-2,6-naphthyridin-3-yl)-N1-[2-(morpholin-4-yl)ethyl]benzene-1,4-diamine], for which the concentration for half-maximal inhibition (IC50) in assay [1] was < 0.1 µM; in assay [2], 0.5 to 1 µM.
With `Cc1c(N2CCc3cnc(Nc4ccc5c(c4)CN(C)C5)nc3C2)cnc2c1NCCO2` [Example 104, 7-(8-methyl-2,3-dihydro-1H-pyrido[2,3-b][1,4]oxazin-7-yl)-N-(2-methylisoindolin-5-yl)-5,6,7,8-tetrahydropyrido[3,4-d]pyrimidin-2-amine], the IC50 in assay [1] was < 0.1 µM; in assay [2] it was < 0.5 µM.
